Data reported in article PMC6125496 (Antimicrobial Agents and Chemotherapy, 2018).
In brackets after ≈: the same amount, converted by molar mass. Where two headings read alike, the source gives them in different places.

Key:
[1] = system: Klebsiella pneumoniae NCTC 13442; assay: microbe, parasite or virus in culture; conditions: Klebsiella pneumoniae, NCTC13442
Source text: (§1) Reference strains are from the German Collection of Microorganisms and Cell Cultures (DSMZ), the American Type Culture Collection (ATCC), the National Collection of Type Cultures (NCTC), and the Medical and Molecular Microbiology, Faculty of Science and Medicine, University of Fribourg, Switzerland.

[2] = system: Klebsiella pneumoniae NCTC 13443; assay: microbe, parasite or virus in culture; conditions: Klebsiella pneumoniae, NCTC13443
Source text: as §1

[3] = system: Acinetobacter baumannii ATCC 19606; assay: microbe, parasite or virus in culture; conditions: Acinetobacter baumannii, ATCC19606
Source text: as §1

[4] = system: Klebsiella pneumoniae ATCC BAA-1905; assay: microbe, parasite or virus in culture; conditions: Klebsiella pneumoniae, ATCCBAA1905
Source text: as §1

[5] = system: Klebsiella pneumoniae ATCC BAA-1904; assay: microbe, parasite or virus in culture; conditions: Klebsiella pneumoniae, ATCCBAA1904
Source text: as §1

[6] = system: Enterobacter cloacae DSM 14563; assay: microbe, parasite or virus in culture; conditions: Enterobacter cloacae, DSM14563
Source text: as §1

[7] = system: Klebsiella pneumoniae NCTC 13439; assay: microbe, parasite or virus in culture; conditions: Klebsiella pneumoniae, NCTC13439
Source text: as §1

[8] = system: Enterococcus faecalis DSM 2570; assay: microbe, parasite or virus in culture; conditions: Enterococcus faecalis, DSM2570
Source text: as §1

[9] = system: Pseudomonas aeruginosa DSM 1117; assay: microbe, parasite or virus in culture; conditions: Pseudomonas aeruginosa, DSM1117
Source text: as §1

[10] = system: Escherichia coli BAA-2469; assay: microbe, parasite or virus in culture; conditions: NDM-1
Source text: as §1

[11] = system: Streptococcus pneumoniae DSM 2134; assay: microbe, parasite or virus in culture; conditions: Streptococcus pneumoniae, DSM2134
Source text: as §1

[12] = system: Escherichia coli BAA-2471; assay: microbe, parasite or virus in culture; conditions: Escherichia coli, BAA2471
Source text: as §1

[13] = system: Enterococcus faecium DSM 20477; assay: microbe, parasite or virus in culture; conditions: Enterococcus faecium, DSM20477
Source text: as §1

[14] = system: Serratia marcescens DSM 17174; assay: microbe, parasite or virus in culture; conditions: Serratia marcescens, DSM17174
Source text: as §1

[15] = system: Stenotrophomonas maltophilia ATCC 13637; assay: microbe, parasite or virus in culture; conditions: Stenotrophomonas maltophilia, ATCC13637
Source text: as §1

[16] = system: Citrobacter kozeri DSM 4595; assay: microbe, parasite or virus in culture; conditions: Citrobacter, DSM4595
Source text: as §1

[17] = system: Klebsiella pneumoniae ATCC 43816; assay: microbe, parasite or virus in culture; conditions: Klebsiella pneumoniae, ATCC43816
Source text: as §1

[18] = system: Staphylococcus epidermidis ATCC 12228; assay: microbe, parasite or virus in culture; conditions: Staphylococcus epidermidis, ATCC12228
Source text: as §1

[19] = system: Escherichia coli ATCC 25922; assay: microbe, parasite or virus in culture; conditions: Escherichia coli, ATCC25922
Source text: as §1

[20] = system: Staphylococcus aureus ATCC 29213; assay: microbe, parasite or virus in culture; conditions: Staphylococcus aureus, ATCC29213
Source text: as §1

[21] = system: Citrobacter freundii DSM 30039; assay: microbe, parasite or virus in culture; conditions: Citrobacter freundii, DSM30039
Source text: as §1

[22] = system: Enterobacter aerogenes DSM 30053; assay: microbe, parasite or virus in culture; conditions: Klebsiella aerogenes, DSM30053
Source text: as §1

[23] = system: K. pneumoniae NCTC 13442 (OXA-48); assay: Neutropenic mouse lung infection model; assay type: in vivo, Klebsiella pneumoniae; conditions: 160 mg/kg/day s.c. (40 mg/kg at 2, 8, 14, 20 h), 26 h postchallenge
[24] = system: Escherichia coli, colistin-resistant (25)
Source text: as §1

[25] = system: Klebsiella pneumoniae, colistin resistant (46)
Source text: as §1

CN(C)c1cc(NC(=O)CNC(C)(C)C)c(O)c2c1C[C@H]1C[C@H]3[C@H](N(C)C)C(O)=C(C(N)=O)C(=O)[C@@]3(O)C(O)=C1C2=O [TGC, tigecycline]
MIC [1]: 2 µg/mL (≈ 3.41 µM) | MIC [2]: 4 µg/mL (≈ 6.83 µM) | MIC [3]: 1 µg/mL (≈ 1.71 µM) | MIC [4]: 4 µg/mL (≈ 6.83 µM) | MIC [5]: 2 µg/mL (≈ 3.41 µM) | MIC [6]: 4 µg/mL (≈ 6.83 µM) | MIC [7]: 2 µg/mL (≈ 3.41 µM) | MIC [8]: 0.25 µg/mL (≈ 0.427 µM) | MIC [9]: > 8 µg/mL | MIC ([10]; Ambler class B carbapenemase): 1 µg/mL (≈ 1.71 µM) | MIC ([10]; Escherichia coli, BAA2469, Ambler class B carbapenemase): 0.5 µg/mL (≈ 0.854 µM) | MIC [11]: 0.125 µg/mL (≈ 0.213 µM) | MIC [12]: 1 µg/mL (≈ 1.71 µM) | MIC [13]: 0.125 µg/mL (≈ 0.213 µM) | MIC [14]: 4 µg/mL (≈ 6.83 µM) | MIC [15]: 0.5 µg/mL (≈ 0.854 µM) | MIC [16]: 1 µg/mL (≈ 1.71 µM) | MIC [17]: 2 µg/mL (≈ 3.41 µM) | MIC [18]: 0.5 µg/mL (≈ 0.854 µM) | MIC [19]: 0.25 µg/mL (≈ 0.427 µM) | MIC [20]: 0.5 µg/mL (≈ 0.854 µM) | MIC [21]: 1 µg/mL (≈ 1.71 µM) | MIC [22]: 1 µg/mL (≈ 1.71 µM) | reduction of lung burden relative to vehicle [23]: 3.14 log10 CFU/gram of lung tissue

colistin [CST]
MIC range ([24]; Unknown mechanism (2 isolates)): 16 µg/mL | MIC range ([24]; mcr-1 (21 isolates)): 4 to 16 µg/mL | MIC range ([24]; mcr-2 (1 isolate)): 8 µg/mL | MIC range ([24]; mcr-3 (1 isolate)): 16 µg/mL | MIC range ([25]; Unknown mechanism (1)): 32 µg/mL | MIC range ([25]; crrB G183V substitution (1)): >128 µg/mL | MIC range ([25]; crrB N141Y substitution (1)): >128 µg/mL | MIC range ([25]; crrB P151L substitution (1)): >128 µg/mL | MIC range ([25]; mcr-1 (1)): 32 µg/mL | MIC range ([25]; mgrB IS1R between +44 and +45 (2)): 128 µg/mL | MIC range ([25]; mgrB IS1R into promoter between −45 and −46 (3)): 32 to 128 µg/mL | MIC range ([25]; mgrB IS5 between +74 and +75 (4)): 16 to 128 µg/mL | MIC range ([25]; mgrB IS903B between +69 and +70 (2)): 64 µg/mL | MIC range ([25]; mgrB ISKpn14 into promoter between −28 and −29 (2)): 64 µg/mL | MIC range ([25]; mgrB M27K substitution (1)): 32 µg/mL | MIC range ([25]; mgrB N42Y and K43I substitutions (1)): 32 µg/mL | MIC range ([25]; mgrB W20R substitution (1)): 32 µg/mL | MIC range ([25]; mgrB W47R substitution (1)): 8 µg/mL | MIC range ([25]; mgrB premature termination (6)): 32 to 128 µg/mL | MIC range ([25]; phoQ R16C substitution (1)): >128 µg/mL | MIC range ([25]; pmrB L17Q substitution (1)): 32 µg/mL | MIC range ([25]; pmrB T157P substitution (6)): 8 to 32 µg/mL
